From patent publication US20250009743A1, “METHODS OF TREATING CANCERS USING STING AGONISTS” (Dana-Farber Cancer Institute, Inc., priority 2021, published 2025)

How the values were obtained:
bone marrow-derived DCs = test: STING pathway activation in DCs co-cultured with BP tumor cells; assay type: cell-based, mouse
Experimental: For flow cytometry analyses of tumor and TDLN samples, single-cell suspensions were obtained as described above (Tissue Digestion). Cells were stained in cold FACS buffer (PBS containing 0.2% BSA and 5 mM EDTA) with LIVE/DEAD Fixable Aqua Dead Cell Stain (Thermo Fisher) for 30 min on ice, followed by blocking with anti-CD16/32 (BioLegend) for 20 min on ice. Cells were then incubated in FACS buffer for 30 min on ice with antibodies specific to CD45 (clone 30-F11, BioLegend), TCR β chain (clone H57-597, BioLegend), CD38 (clone 145-2C11, BioLegend), CD4 (clone RM4-5, BioLegend), CD8a (clone 53-6.7, BioLegend), PD-1 (clone 29F.1A12, BioLegend), CD44 (clone IM7, BioLegend), CD62L (clone MEL-14, BioLegend), IFN-γ (clone XMG1.2, BioLegend), TNF-α (clone MP6-XT22, BioLegend), Granzyme B (clone NGZB, eBioscience), CD11c (clone N418, BioLegend), I-A/I-E (clone M5/114.15.2, BioLegend), CD80 (clone 16-10A1, BioLegend), CD86 (clone GL-1, BioLegend), CD103 (clone 2E7, BioLegend), CD11b (M1/70, BioLegend), F4/80 (clone BM8, BioLegend), phospho-TBK1 (Ser172) (clone D52C2, Cell Signaling Tech.) or phospho-IRF-3 (Ser396) (clone D601M, Cell Signaling Tech.). For intracellular staining, Foxp3/Transcription Factor Staining Buffer Set (eBioscience, #00-5523-00) was used for fixation and permeabilization. […] All data were analyzed using FlowJo software. […]

human BMDMs = test: Polarization of human BMDMs cultured in CM from ovarian PDXs; assay type: cell-based
Experimental: For ex vivo culture of human macrophages, human BMDMs were generated from bone marrow mononuclear cells (BMMs) (CAT #70001) obtained from […] Technologies. Briefly, BMMs were cultured in DMEM containing 10% FBS, 55 μM 2-Mercaptoethanol (CAT #21985023, Thermo Fisher) and 50 ng/ml M-CSF for 5-7 days with media replacement every 3 days to obtain matured macrophages (BMDMs). […] Flow cytometry analysis was preformed to analyze the phenotypes of macrophages for both mouse and human BMDMs.

PBM-R tumors = test: Flow cytometry of tumor-infiltrating immune cells in PBM-R tumor-bearing mice; assay type: in vivo, mouse; settings: 14 days; for STING pathway and activated (CD86^+) conventional DCs (cDCs): FIG. 23D
Experimental: Tumors were chopped and digested in collagenase buffer as described previously (Ding et al., 2018 Cell Rep 25, 2972-2980.e2975). Single cell suspensions of tumor and ascites were obtained by filtering through 70 um strainers and treated with 1× eBioscience RBC lysis buffer (Thermo Fisher) before staining. Single cells suspensions were incubated with LIVE/DEAD Fixable Aqua Dead Cell Stain (Life Technologies, Cat #L34965) for 30 min and then blocked with anti-CD16/32 (Biolegend, clone 93) for 20 min on ice. Samples were then incubated with appropriate antibodies for 30 min on ice. Foxp3 staining buffer set (eBioscience, Cat #00-5523-00) was applied for intracellular markers staining. For the intracellular cytokine analysis, cells were stimulated with Leukocyte Activation Cocktail (BD Biosciences, Cat #550583) at 37° C. for 4-6 hours prior to FACS staining. The following antibodies were used in this study: antibodies were purchased from BioLegend unless otherwise indicated: CD45 (clone 30-F11), CD3ε (clone 145-2C11), CD4 (clone RM4-5), CD8 (clone 53-6.7), CD44 (clone IM7), CD62L (MEL-14), CD25 (PC61), IFNγ (clone XMG1.2), TNFα (clone MP6-XT22), CD11b (clone M1/70), CD11c […], F4/80 (clone BM8), Ly-6C (clone HK1.4), Ly-6G (clone 1A8), MHC-II (clone M5/114.15.2), CD80 (clone 16-10A1), CD86 (clone GL-1), MHC-I (clone KH114), FoxP3 (clone FJK-16 s; eBioscience), Phospho-IRF-3 (Ser396) (clone D601M, Cell signaling technology) and Phospho-TBK1/NAK (Ser172) (clone D52C2, Cell signaling technology). The following human antibodies were used in this study: cell surface markers includes CD45 (clone H130), CD11b (clone M1/70), CD11c (clone Bu15), CD80 (clone 2D10), CD86 (clone IT2.2), CD14 (clone 63D3), CD15 […], HLA-DR (clone L243) and HLA-A,B,C (clone W6/32); intracellular markers include CD163 (clone GHI/61), CD68 (clone Y1/82A) and CD206 (clone 15-2). Flow cytometry was performed on an LSRII (BD Biosciences) or Fortessa HTS (BD Biosciences) at DFCI Flow Cytometry Core, and all the data were analyzed using FlowJo software.

`Cc1ccc2c(=O)c3cccc(CC(=O)O)c3oc2c1C` [DMXAA, 5,6-dimethyl-xanthenone-4-acetic acid] was tested, and the “activation of STING pathway in co-cultured DCs” value (bone marrow-derived DCs; BP cells treated with CM of DMXAA-pre-treated TEMs, then olaparib, FIG. 7I) was “restored”.
`COc1cc2cc(C(=O)CCC(=O)O)sc2cc1OC` [MSA-2] was tested, and the “M2-like macrophage polarization induced by ovarian PDXs” value (human BMDMs; MSA-2 added, FIG. 25E) was “reversed”, the “proportion of TAMs” value (PBM-R tumors; FIG. 23B) was “dramatically decreased” and the “ratio of M1/M2” value (PBM-R tumors; FIG. 23C) was “increase”. The “STING pathway and activated (CD86^+) conventional DCs (cDCs)” value (PBM-R tumors) was “activated the STING pathway and increased tumor-infiltrating activated (CD86^+) conventional DCs”.
With `O=C(c1cc(Cc2n[nH]c(=O)c3ccccc23)ccc1F)N1CCN(C(=O)C2CC2)CC1` [olaparib] the “M2-like polarization induced by ovarian PDXs” value (human BMDMs; CM of olaparib-treated PDXs, FIG. 25C) was “further enhance”, the “STING pathway activation (p-TBK1+ p-IRF3+) in DCs” value (bone marrow-derived DCs; DCs co-cultured 24 hours with olaparib-treated BP cells, FIG. 5I) was “activated the STING pathway in DCs” and the “STING pathway and activated (CD86^+) conventional DCs (cDCs)” value (PBM-R tumors) was “activated the STING pathway and increased tumor-infiltrating activated (CD86^+) conventional DCs”.
